Results published in US7420051B2, “Synthetic process for the manufacture of an ecteinaschidin compound” (Pharma Mar, S.A., priority 2000, dated 2008).

What was measured:
Type in all cases: cell-based
[1] = test system: P-388 (suspension culture of a lymphoid neoplasm from DBA/2 mouse); assay: Cytotoxic activity screening, P-388 cells; details: Mus musculus, P388, 72 h, three days of incubation, approximate IC50
Description: (§1) Cell Cultures. Cells were maintained in logarithmic phase of growth in Eagle's Minimum Essential Medium, with Earle's Balanced Salts, with 2.0 mM L-glutamine, with non-essential amino acids, without sodium bicarbonate (EMEM/neaa); supplemented with 10% Fetal Calf Serum (FCS), 10^−2 M sodium bicarbonate and 0.1 g/l penicillin-G+streptomycin sulfate.
(§2) A simple screening procedure has been carried out to determine and compare the antitumour activity of these compounds, using an adapted form of the method described by Bergeron et al (1984). The tumour cell line employed have been P-388 (suspension culture of a lymphoid neoplasm from DBA/2 mouse), A-549 (monolayer culture of a human lung carcinoma), HT-29 (monolayer culture of a human colon carcinoma) and MEL-28 (monolayer culture of a human melanoma).
P-388 cell were seeded into 16 mm wells at 1×10^4 cells per well in 1 ml aliquots of MEM 5FCS containing the indicated concentration of drug. A separate set of cultures without drug was seeded as control growth to ensure that cells remained in exponential phase of growth. All determinations were carried out in duplicate.

[2] = test system: MEL-28 (monolayer culture of a human melanoma); assay: Cytotoxic activity screening, MEL-28 cells; details: SK-MEL-28, 72 h, three days of incubation, Crystal Violet, approximate IC50
Description: as §1, §2
(§3) A-549, HT-29 and MEL-28 were seeded into 16 mm wells at 2×10^4 cells per well in 1 ml aliquots of MEM 10FCS containing the indicated concentration of drug. A separate set of cultures without drug was seeded as control growth to ensure that cells remained in exponential phase of growth. All determinations were carried out in duplicate. After three days of incubation at 37° C., 10% CO2 in a 98% humid atmosphere, the wells were stained with 0.1% Crystal Violet. An approximately IC50 was determined by comparing the growth in wells with drug to the growth in wells control.

[3] = test system: HT-29 (monolayer culture of a human colon carcinoma); assay: Cytotoxic activity screening, HT-29 cells; details: Homo sapiens, HT-29, 72 h, three days of incubation, Crystal Violet, approximate IC50
Description: as §1, §2, §3

[4] = test system: A-549 (monolayer culture of a human lung carcinoma); assay: Cytotoxic activity screening, A-549 cells; details: Homo sapiens, A549, 72 h, three days of incubation, Crystal Violet, approximate IC50
Description: as §1, §2, §3

DU-145 = assay: Cytotoxic activity screening, DU-145 cells; details: Homo sapiens, DU-145, DU-145 cells

Row | SMILES | IC50 [1] | IC50 [2] | IC50 [3] | IC50 [4] | IC50 (DU-145)
1 | COC1=C(C)C(=O)C2=C(C1=O)[C@H](CNC(=O)[C@H](C)NC(=O)OC(C)(C)C)N1C(C2)[C@H]2c3c(cc(C)c(OC)c3O)C[C@@H]([C@@H]1C#N)N2C (stereo partly shown) | 0.15 µM | > 0.15 µM | 0.15 µM | > 0.15 µM | 
2 | COCOc1c(OC)c(C)cc2c1[C@@H]1C3CC4=C(C(=O)C(OC)=C(C)C4=O)[C@H](CNC(=O)[C@H](C)NC(=O)OC(C)(C)C)N3[C@@H](C#N)[C@H](C2)N1C (stereo partly shown) | 1.44 µM | 1.44 µM | 1.44 µM | 1.44 µM | 
3 | COCOc1c(OC)c(C)cc2c1[C@@H]1C3CC4=C(C(=O)C(O)=C(C)C4=O)[C@H](CNC(=O)[C@H](C)NC(=O)OC(C)(C)C)N3[C@@H](C#N)[C@H](C2)N1C (stereo partly shown) | > 1.5 µM | > 1.5 µM | > 1.5 µM | > 1.5 µM | 
4 | COCOc1c(OC)c(C)cc2c1[C@@H]1C3Cc4c(O)c(C)c5c(c4[C@H](CNC(=O)[C@H](C)NC(=O)OC(C)(C)C)N3[C@@H](C#N)[C@H](C2)N1C)OCO5 (stereo partly shown) | 1.4 µM | 1.4 µM | 1.4 µM | 1.4 µM | 
5 | C=CCOc1c(C)c2c(c3c1CC1[C@H]4c5c(cc(C)c(OC)c5OCOC)C[C@@H]([C@H](C#N)N1[C@H]3CNC(=O)[C@H](C)NC(=O)OC(C)(C)C)N4C)OCO2 (stereo partly shown) | 0.01 µM | 0.01 µM | 0.01 µM | 0.01 µM | 
6 | C=CCOc1c(C)c2c(c3c1CC1[C@H]4c5c(cc(C)c(OC)c5O)C[C@@H]([C@H](C#N)N1[C@H]3CNC(=O)[C@H](C)N)N4C)OCO2 (stereo partly shown) | 0.08 µM | 0.16 µM | 0.01 µM | 0.16 µM | 
7 | C=CCOc1c(C)c2c(c3c1CC1[C@H]4c5c(cc(C)c(OC)c5O)C[C@@H]([C@H](C#N)N1[C@H]3CNC(=O)[C@H](C)NC(=S)Nc1ccccc1)N4C)OCO2 (stereo partly shown) | 0.01 µM | 0.01 µM | 0.01 µM | 0.01 µM | 
8 | C=CCOc1c(C)c2c(c3c1CC1[C@H]4c5c(cc(C)c(OC)c5O)C[C@@H]([C@H](C#N)N1[C@H]3CN)N4C)OCO2 (stereo partly shown) | 0.019 µM | 0.019 µM | 0.019 µM | 0.019 µM | 
9 | COc1c(C)cc2c(c1O)[C@@H]1C3[C@@H]4SCC(N)C(=O)OC[C@@H](c5c6c(c(C)c(OC(C)=O)c54)OCO6)N3[C@@H](C#N)[C@H](C2)N1C (stereo partly shown) | 0.008 µM | 0.008 µM | 0.008 µM | 0.008 µM | 
10 | COc1c(C)cc2c(c1O)[C@@H]1C3[C@@H]4SCC(=O)C(=O)OC[C@@H](c5c6c(c(C)c(OC(C)=O)c54)OCO6)N3[C@@H](C#N)[C@H](C2)N1C (stereo partly shown) | 0.01 µM | 0.01 µM | 0.01 µM | 0.01 µM | 
11 | COC1=C(C)C(=O)C2=C(C1=O)C(CNC(C)=O)N1C(C2)[C@H]2c3c(cc(C)c(OC)c3O)C[C@@H]([C@@H]1C#N)N2C (stereo partly shown) | 0.005 µM | 0.005 µM | 0.005 µM | 0.005 µM | 
12 | COc1c(C)cc2c(c1O)[C@@H]1C3Cc4c(OC(C)=O)c(C)c5c(c4[C@H](CNC(=O)CC(C)C)N3[C@@H](C#N)[C@H](C2)N1C)OCO5 (stereo partly shown) | 0.0008 µM | 0.0008 µM |  | 0.001 µM | 0.001 µM
13 | COc1c(C)cc2c(c1O)[C@@H]1C3Cc4c(OC(C)=O)c(C)c5c(c4[C@H](CNC(=O)/C=C/c4cccc(C(F)(F)F)c4)N3[C@@H](C#N)[C@H](C2)N1C)OCO5 (stereo partly shown) | 0.0001 µM | 0.0001 µM |  | 0.0001 µM | 
14 | C=CCOc1c(C)c2c(c3c1CC1[C@H]4c5c(cc(C)c(OC)c5OCOC)C[C@@H]([C@H](C#N)N1[C@H]3COC(CSCC1c3ccccc3-c3ccccc31)NC(=O)OC(C)(C)C)N4C)OCO2 (stereo partly shown) |  |  | > 1 µM | > 1 µM | 
15 | COCOc1c(OC)c(C)cc2c1[C@@H]1C3CC4(O)C(=O)C(C)=C5OCOC5=C4[C@H](COC(CSCC4c5ccccc5-c5ccccc54)NC(=O)OC(C)(C)C)N3[C@@H](C#N)[C@H](C2)N1C (stereo partly shown) |  |  | > 1 µM | > 1 µM | 
16 | C=CCOc1c(C)c2c(c3c1CC1[C@H]4c5c(cc(C)c(OC)c5O)C[C@@H]([C@H](C#N)N1[C@H]3CO)N4C)OCO2 (stereo partly shown) | 0.19 µM | 0.19 µM | 0.19 µM | 0.19 µM | 
17 | C=CCOc1c(C)c2c(c3c1CC1[C@H]4c5c(cc(C)c(OC)c5O)C[C@@H]([C@H](C#N)N1[C@H]3COC(CSCC1c3ccccc3-c3ccccc31)NC(=O)OC(C)(C)C)N4C)OCO2 (stereo partly shown) |  |  | 0.0055 µM | 0.0055 µM | 
